Data published in US12459922B2 (Gilead Sciences, Inc., priority 2022, dated 2025).

Columns and labels:
[1] = target: T1, PARP7 (Homo sapiens, UniProt Q7Z3E1); experiment: Probe Displacement Assay for PARP7 (MSD electrochemiluminescent, biotinylated probe RBNO11147); conditions: displacement of biotinylated probe RBNO11147 from PARP7 NAD+-binding site; read-out: MSD ProbeDisp PARP7 IC50
T1 sequence (Q7Z3E1 1-657): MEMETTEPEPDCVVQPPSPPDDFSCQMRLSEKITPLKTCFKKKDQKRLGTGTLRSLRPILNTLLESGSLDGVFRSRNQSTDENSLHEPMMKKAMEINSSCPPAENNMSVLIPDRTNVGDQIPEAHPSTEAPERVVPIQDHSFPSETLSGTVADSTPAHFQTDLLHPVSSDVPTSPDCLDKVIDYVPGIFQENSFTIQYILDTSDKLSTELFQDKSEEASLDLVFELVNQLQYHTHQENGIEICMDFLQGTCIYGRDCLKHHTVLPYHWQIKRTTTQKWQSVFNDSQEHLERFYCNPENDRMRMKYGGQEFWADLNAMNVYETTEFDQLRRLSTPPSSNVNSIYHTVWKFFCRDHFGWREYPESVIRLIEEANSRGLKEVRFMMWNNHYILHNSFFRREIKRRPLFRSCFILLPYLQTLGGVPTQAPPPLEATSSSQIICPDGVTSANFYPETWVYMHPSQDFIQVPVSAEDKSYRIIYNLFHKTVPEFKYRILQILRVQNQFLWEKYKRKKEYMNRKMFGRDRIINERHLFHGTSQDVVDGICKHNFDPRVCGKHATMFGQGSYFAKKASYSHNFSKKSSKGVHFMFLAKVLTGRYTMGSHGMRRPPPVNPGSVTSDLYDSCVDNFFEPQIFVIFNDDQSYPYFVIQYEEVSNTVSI
Description: Displacement of a biotinylated probe (RBNO11147; Wigle et al., Cell Chemical Biology, 2020, pp. 877-887) from the PARP7 NAD+-binding site was measured in vitro using a Mesoscale Discovery electrochemiluminescent assay. […] Next, 10 ml of 10 nM PARP7 protein incubated for 1 hour at room temperature with a dose response curve of each test compound in a Greiner LDV polypropylene plate (#781201) is added to the MSD plate containing the immobilized probe. The interaction is allowed to reach equilibrium for 1.5 hours, and then 10 ml of SULFO-TAG labeled anti-GST antibody (Cat #R32AA-1) is added to each well and allowed to incubate for an additional 1.5 hours at room temperature. Finally, 10 ml of MSD read buffer T (4×, Cat. #R92C-1) is added to each well using a Bravo liquid handler to prevent air bubbles in the wells, and the plates are subsequently read in an MSD instrument. Light intensity is then measured to quantify the amount of PARP7 bound to the immobilized probe on the plate.

[2] = test system: endogenous cellular STAT1 (phosphorylated at Tyr701) in NCI-H1373 cells; experiment: Phospho-STAT1 (Tyr701) LANCE Ultra TR-FRET Detection Assay; assay type: cell-based; conditions: Homo sapiens, NCI-H1373, 48 h, phospho-STAT1 (Tyr701) induction, read-out: NH1373 pSTAT1 EC50

| SMILES | IC50 [1] | EC50 [2] |
| --- | --- | --- |
| C[C@@H](CCCn1ncc2cc(-c3ncc(C(F)(F)F)cn3)ccc2c1=O)Nc1cn[nH]c(=O)c1C(F)(F)F [Example 4, 2-[(4S)-4-[[6-oxo-5-(trifluoromethyl)-1H-pyridazin-4-yl]amino]pentyl]-6 [5-(trifluoromethyl)pyrimidin-2-yl]phthalazin-1-one] | 0.2 nM | 95.6 nM |
| C[C@@H](CCCn1ccc2cc(-c3ncc(C(F)(F)F)cn3)ccc2c1=O)Nc1cn[nH]c(=O)c1C(F)(F)F [Example 5, 2-[(4S)-4-[[6-oxo-5-(trifluoromethyl)-1H-pyridazin-4-yl]amino]pentyl]-6-[5-(trifluoromethyl)pyrimidin-2-yl]isoquinolin-1-one] | 0.3 nM | 143 nM |
| C[C@@H](CCCn1ccc2c(F)c(-c3ncc(C(F)(F)F)cn3)ccc2c1=O)Nc1cn[nH]c(=O)c1C(F)(F)F [Example 6, 5-fluoro-2-[(4S)-4-[[6-oxo-5-(trifluoromethyl)-1H-pyridazin-4-yl]amino]pentyl]-6-[5-(trifluoromethyl)pyrimidin-2-yl]isoquinolin-1-one] | 0.7 nM | 434 nM |
| C[C@@H](CCCn1ccc2cc(-c3ncc(C(F)(F)F)cn3)cc(F)c2c1=O)Nc1cn[nH]c(=O)c1C(F)(F)F [Example 7, 8-fluoro-2-[(4S)-4-[[6-oxo-5-(trifluoromethyl)-1H-pyridazin-4-yl]amino]pentyl]-6-[5-(trifluoromethyl)pyrimidin-2-yl]isoquinolin-1-one] | 0.3 nM | 61.3 nM |
| C[C@@H](CCCn1ccc2cc(-c3ncc(C(F)(F)F)cn3)c(F)cc2c1=O)Nc1cn[nH]c(=O)c1C(F)(F)F [Example 8, 7-fluoro-2-[(4S)-4-[[6-oxo-5-(trifluoromethyl)-1H-pyridazin-4-yl]amino]pentyl]-6-[5-(trifluoromethyl)pyrimidin-2-yl]isoquinolin-1-one] | 0.2 nM | 19.2 nM |
| C[C@@H](CCCn1ccc2cc(-c3ccc(C(F)(F)F)cn3)c(F)cc2c1=O)Nc1cn[nH]c(=O)c1C(F)(F)F [Example 9, 7-fluoro-2-[(4S)-4-[[6-oxo-5-(trifluoromethyl)-1H-pyridazin-4-yl]amino]pentyl]-6-[5-(trifluoromethyl)-2-pyridyl]isoquinolin-1-one] | 0.4 nM | 92.1 nM |
| C[C@@H](CCCn1ccc2c(F)c(-c3ccc(C(F)(F)F)cn3)ccc2c1=O)Nc1cn[nH]c(=O)c1C(F)(F)F [Example 10, 5-fluoro-2-[(4S)-4-[[6-oxo-5-(trifluoromethyl)-1H-pyridazin-4-yl]amino]pentyl]-6-[5-(trifluoromethyl)-2-pyridyl]isoquinolin-1-one] | 0.7 nM | 291 nM |
| C[C@@H](CCCn1ccc2cc(-c3ccc(C(F)(F)F)cn3)cc(F)c2c1=O)Nc1cn[nH]c(=O)c1C(F)(F)F [Example 11, 8-fluoro-2-[(4S)-4-[[6-oxo-5-(trifluoromethyl)-1H-pyridazin-4-yl]amino]pentyl]-6-[5-(trifluoromethyl)-2-pyridyl]isoquinolin-1-one] | 0.2 nM | 32.4 nM |
| C[C@@H](CCCn1ccc2cc(-c3ncc(C(F)(F)F)cn3)cnc2c1=O)Nc1cn[nH]c(=O)c1C(F)(F)F [Example 12, 7-[(4S)-4-[[6-oxo-5-(trifluoromethyl)-1H-pyridazin-4-yl]amino]pentyl]-3-[5-(trifluoromethyl)pyrimidin-2-yl]-1,7-naphthyridin-8-one] | 23 nM | 10000 nM |
| C[C@@H](CCCn1ccc2cc(-c3ccc(C(F)(F)F)cn3)ncc2c1=O)Nc1cn[nH]c(=O)c1C(F)(F)F [Example 13, 2-[(4S)-4-[[6-oxo-5-(trifluoromethyl)-1H-pyridazin-4-yl]amino]pentyl]-6-[5 (trifluoromethyl)-2-pyridyl]-2,7-naphthyridin-1-one] | 3.7 nM | 10000 nM |
| C[C@@H](CCCn1ccc2nc(-c3ccc(C(F)(F)F)cn3)ccc2c1=O)Nc1cn[nH]c(=O)c1C(F)(F)F [Example 14] | 0.5 nM | 94.3 nM |
| CC(=O)c1c(N[C@@H](C)CCCn2ccc3cc(-c4ncc(C(F)(F)F)cn4)ccc3c2=O)cn[nH]c1=O [Example 15, 2-[(4S)-4-[(5-acetyl-6-oxo-1H-pyridazin-4-yl)amino]pentyl]-6-[5-(trifluoromethyl)pyrimidin-2-yl]isoquinolin-1-one] | 0.3 nM | 576 nM |
| CC(=O)c1c(N[C@@H](C)CCCn2ccc3cc(-c4ncc(C(F)(F)F)cn4)c(F)cc3c2=O)cn[nH]c1=O [Example 16, (S)-2-(4-((5-acetyl-6-oxo-1,6-dihydropyridazin-4-yl)amino)pentyl)-7-fluoro-6-(5-(trifluoromethyl)pyrimidin-2-yl)isoquinolin-1(2H)-one] | 0.2 nM | 25.2 nM |
| C[C@@H](CCCn1ccc2cc(-c3ccc(OC(F)F)cn3)cc(F)c2c1=O)Nc1cn[nH]c(=O)c1C(F)(F)F [Example 17, (S)-6-(5-(difluoromethoxy)pyridin-2-yl)-8-fluoro-2-(4-((6-oxo-5-(trifluoromethyl)-1,6-dihydropyridazin-4-yl)amino)pentyl)isoquinolin-1(2H)-one] | 0.4 nM | 117 nM |
| C[C@@H](CCCn1ccc2cc(-c3ccc(C#N)cn3)cc(F)c2c1=O)Nc1cn[nH]c(=O)c1C(F)(F)F [Example 18, (S)-6-(8-fluoro-1-oxo-2-(4-((6-oxo-5-(trifluoromethyl)-1,6-dihydropyridazin-4-yl)amino)pentyl)-1,2-dihydroisoquinolin-6-yl)nicotinonitrile] | 0.4 nM | 164 nM |
| C[C@@H](CCCn1ccc2cc(-c3ccc(F)cn3)cc(F)c2c1=O)Nc1cn[nH]c(=O)c1C(F)(F)F [Example 19, (S)-8-fluoro-6-(5-fluoropyridin-2-yl)-2-(4-((6-oxo-5-(trifluoromethyl)-1,6-dihydropyridazin-4-yl)amino)pentyl)isoquinolin-1(2H)-one] | 0.3 nM | 74.1 nM |
| C[C@@H](CCCn1ccc2cc(-c3ncc(C(F)(F)F)cn3)c(F)c(F)c2c1=O)Nc1cn[nH]c(=O)c1C(F)(F)F [Example 20] | 0.3 nM | 14.6 nM |
| C[C@@H](CCCn1ccc2cc(-c3cnc(C(F)(F)F)cn3)c(F)cc2c1=O)Nc1cn[nH]c(=O)c1C(F)(F)F [Example 21, 7-fluoro-2-[(4S)-4-[[6-oxo-5-(trifluoromethyl)-1H-pyridazin-4-yl]amino]pentyl]-6-[5-(trifluoromethyl)pyrazin-2-yl]isoquinolin-1-one] | 0.3 nM | 136 nM |
| COc1cnc(-c2cc3ccn(CCC[C@H](C)Nc4cn[nH]c(=O)c4C(F)(F)F)c(=O)c3cc2F)nc1 [Example 22, (S)-7-fluoro-6-(5-methoxypyrimidin-2-yl)-2-(4-((6-oxo-5-(trifluoromethyl)-1,6-dihydropyridazin-4-yl)amino)pentyl)isoquinolin-1(2H)-one] | 0.4 nM | 71.3 nM |
| C[C@@H](CCCn1ccc2cc(-c3cnc(C#N)cn3)c(F)cc2c1=O)Nc1cn[nH]c(=O)c1C(F)(F)F [Example 23, (S)-5-(7-fluoro-1-oxo-2-(4-((6-oxo-5-(trifluoromethyl)-1,6-dihydropyridazin-4-yl)amino)pentyl)-1,2-dihydroisoquinolin-6-yl)pyrazine-2-carbonitrile] | 0.4 nM | 2300 nM |
| C[C@@H](CCCn1ccc2cc(-c3ncc(C#N)cn3)c(F)cc2c1=O)Nc1cn[nH]c(=O)c1C(F)(F)F [Example 24, (S)-2-(7-fluoro-1-oxo-2-(4-((6-oxo-5-(trifluoromethyl)-1,6-dihydropyridazin-4-yl)amino)pentyl)-1,2-dihydroisoquinolin-6-yl)pyrimidine-5-carbonitrile] | 0.9 nM | 220 nM |
| C[C@@H](CCCn1ccc2cc(-c3ccc(C#N)cn3)c(F)cc2c1=O)Nc1cn[nH]c(=O)c1C(F)(F)F [Example 25, (S)-6-(7-fluoro-1-oxo-2-(4-((6-oxo-5-(trifluoromethyl)-1,6-dihydropyridazin-4-yl)amino)pentyl)-1,2-dihydroisoquinolin-6-yl)nicotinonitrile] | 0.6 nM | 136 nM |
| O=c1[nH]ncc(N[C@H]2CCC[C@@H](Cn3ccc4cc(-c5ncc(OCCO)cn5)c(F)cc4c3=O)C2)c1C(F)(F)F [Example 495, 7-fluoro-6-[5-(2-hydroxyethoxy)pyrimidin-2-yl]-2-[[(1R,3S)-3-[[6-oxo-5-(trifluoromethyl)-1H-pyridazin-4-yl]amino]cyclohexyl]methyl]isoquinolin-1-one] | – | 29 nM |
| O=c1[nH]ncc(N[C@H]2CCC[C@@H](Cn3ccc4cc(-c5cc6c(cn5)C(F)(F)CC6)c(F)cc4c3=O)C2)c1C(F)(F)F [Example 496, 6-(7,7-difluoro-5,6-dihydrocyclopenta[c]pyridin-3-yl)-7-fluoro-2-[[(1R,3S)-3-[[6-oxo-5-(trifluoromethyl)-1H-pyridazin-4-yl]amino]cyclohexyl]methyl]isoquinolin-1-one] | – | 5.5 nM |
